# Reference: patent publication US8629272B2, “Tricyclic pyrimidine derivatives as wnt antagonists” (Deutsches Krebsforschungszentrum, priority 2009, dated 2014)
# Columns and labels:
# HepG2 = assay: Cytotoxicity in HepG2, CellTiterGlo; assay type: cell-based; settings: 24 h
# Description: For examination of cytotoxicity in these cancer cell lines the commercial available CellTiterGlo® Reagent (Promega, USA) was used according to the manufactor. Compounds were applied to Hek293T (denoted (1)) or HepG2 (denoted (2)), cultured in Dulbecco's Modified Eagles Medium, supplemented with 10% fetal calf serum and 1% penicillin/streptomycin. Cells were grown in T75 flasks at 37° C., 5% CO2 and trypsinized when 60-80% confluent by adding 2 ml of 0.25% Trypsin-EDTA solution. Cells were then re-suspended into culture medium yielding approx. 4000 cells (1) or 4500 cells (2), suspended in 30 microl medium. 48 h after cell seeding, compounds were added to yield the desired final concentrations. 24 h after compound addition cytotoxicity was evaluated. For this purpose the media was removed and CellTiterGlo® was added according to the manufactors manual. In this assay the luciferase emission readout is directly correlated with the cellular amount of ATP, low luciferase emission thus is reflecting cytotoxicity of a compound. For the evaluation of the IC50 the compound was applied in increasing concentrations yielding final concentrations per well of 5 nM-100 microM.
# Wnt signalling pathway = assay: Wnt-sensitive reporter gene assay (6xTCF-luciferase, pTOP-FLASH) in Hek293T cells; assay type: cell-based; set-up: Normalized Wnt pathway (inhibitory) activity: scale not given here; settings: for IC50: Homo sapiens, HEK-293T, Hek293T, 24 h incubation, 5 nM-100 microM, read-out: IC50 of the Wnt signalling pathway inhibiting activity
# Description: To screen for small-molecule modulators of the Wnt signalling pathway, a reporter gene based assay describing the modulation of the TCF4 transcription factor was used. More specifically 4000 Hek293T cells were seeded into 384 high density plates. 24 h after seeding a Wnt-sensitive reporter (6×TCF-luciferase (Firefly) (pTOP-FLASH; “Armadillo co activates transcription driven by the product of the drosophila segment polarity gene dTCF”, Cell, 1997, 88(6), pages 789-799) and constitutively expressed control reporter (Renilla luciferase pCMV-RL) were transfected into Hek293T. Wnt signaling was stimulated by cotransfecting mouse Wnt1, mouse Frizzled 8 and human LRP6 according to “Casein kinase 1 gamma couples Wnt receptor activation to cytoplasmic signal transduction”, Nature, 2005, 438 (7069), pages 867-872. 24 h after pathway stimulation compounds were added at a concentration of 10 microM and allowed to incubate for 24 h. For the evaluation of the IC50 the compound was applied in increasing concentrations yielding final concentrations per well of 5 nM-100 microM.
Structure (SMILES),Normalized toxicity values (HepG2) (HepG2; 0.005 microM),Normalized toxicity values (HepG2) (HepG2; 0.015 microM),Normalized toxicity values (HepG2) (HepG2; 0.046 microM),Normalized toxicity values (HepG2) (HepG2; 0.137 microM),Normalized toxicity values (HepG2) (HepG2; 0.412 microM),Normalized toxicity values (HepG2) (HepG2; 1.235 microM),Normalized toxicity values (HepG2) (HepG2; 3.704 microM),Normalized toxicity values (HepG2) (HepG2; 11.111 microM),Normalized toxicity values (HepG2) (HepG2; 33.333 microM),Normalized toxicity values (HepG2) (HepG2; 100.000 microM),Normalized Wnt pathway (inhibitory) activity (Wnt signalling pathway; 0.005 microM),Normalized Wnt pathway (inhibitory) activity (Wnt signalling pathway; 0.015 microM),Normalized Wnt pathway (inhibitory) activity (Wnt signalling pathway; 0.137 microM),Normalized Wnt pathway (inhibitory) activity (Wnt signalling pathway; 0.412 microM),Normalized Wnt pathway (inhibitory) activity (Wnt signalling pathway; 1.235 microM),Normalized Wnt pathway (inhibitory) activity (Wnt signalling pathway; 3.704 microM),Normalized Wnt pathway (inhibitory) activity (Wnt signalling pathway; 11.111 microM),Normalized Wnt pathway (inhibitory) activity (Wnt signalling pathway; 33.333 microM),Normalized Wnt pathway (inhibitory) activity (Wnt signalling pathway; 100.000 microM),IC50 (Wnt signalling pathway),other results
"CCOC(=O)C1=C(C)Nc2c(c3nnc(-c4cccc(OC)c4)n3c(=O)n2-c2ccccc2)C1c1ccccc1 (centres unmarked) [Example 15, 3-(3-Methoxy-phenyl)-7-methyl-4-oxo-5,9-diphenyl-4,5,6,9-tetrahydro-1,2,3a,5,6-pentaaza-cyclopenta[a]naphthalene-8-carboxylic acid ethyl ester]",1.0700,1.0465,1.1350,0.9913,1.0390,0.9878,1.1575,1.1825,1.2000,1.5075,0.9417,0.9230,1.0963,0.9830,0.8830,0.2973,0.2350,0.4200,0.4505,1340 nM,–
CCOC(=O)C1=C(c2ccccc2)c2c(n(-c3ccccc3)c(=O)n3c(-c4ccc(OC)cc4)nnc23)NC1C (centres unmarked) [Example 18],1.1400,1.0110,1.0350,0.9173,0.9185,0.9953,0.9855,1.0800,1.1125,1.1375,0.8680,1.1175,1.0825,1.1223,0.7260,0.8798,0.6365,0.4930,0.2505,22100 nM,Normalized Wnt pathway (inhibitory) activity (Wnt signalling pathway; 0.046 microM): 1.0168
"CCOC(=O)C1=C(c2ccccc2)c2c(n(-c3ccccc3)c(=O)n3c(-c4cccc(OC)c4)nnc23)NC1C (centres unmarked) [Example 16, 3-(3-Methoxy-phenyl)-7-methyl-4-oxo-5,9-diphenyl-4,5,6,7-tetrahydro-1,2,3a,5,6-pentaaza-cyclopenta[a]naphthalene-8-carboxylic acid ethyl ester]",1.0275,0.9130,0.9210,0.9210,0.9183,0.9173,1.0303,1.1325,1.2425,1.1200,0.9907,1.2275,1.0070,1.0435,0.9565,0.5445,0.3755,0.3063,0.1990,2940 nM,Normalized Wnt pathway (inhibitory) activity (Wnt signalling pathway; 0.046 microM): 1.0533
